Measured values taken from patent US10492511B2, “Preparations” (Symrise AG, priority 2012, dated 2019).

Columns and labels:
[1] = Reduction in apatite solubility (ALR), lactic acid consumption at pH 5; conditions: 0.5 g hydroxyapatite in 300 ml water, 37° C., pH 5, 2 hours
Description: In order to determine the reduction in apatite stability, a blind test was first conducted. For this purpose, a reaction vessel with 300 ml of desalinated water was temperature-controlled to 37° C., and 0.5 g of hydroxyapatite powder (spec. surface area 60 m^2/g, Merck) was suspended therein. The pH value of the suspension was kept at a constant value of 5 by means of an automatic burette used to add lactic acid. The amount of 0.1 molar lactic acid consumed in order to stabilize the pH was registered with a recorder.
The reduction in apatite solubility (ALR in %) caused by the active ingredient was calculated as follows: ALR (%)=(Lu−Lb)*100/Lu (%)

[2] = Inhibition of crystal growth (KWI) of hydroxyapatite, KOH consumption at pH 7.4; conditions: 100 mg hydroxyapatite, pH 7.4, 2 hours
Description: In order to determine inhibition of crystal growth (KWI in %) by hydroxyapatite, a blind test was also first conducted. For this purpose, a reaction vessel with 400 ml of a 0.0008 molar solution of KH2PO4 and 45 ml of a 0.012 molar solution of CaCl2 was prepared. This solution was adjusted to a pH of 7.4 by titration with a 0.05 molar solution of KOH. After a stable pH value had been maintained for at least 30 minutes, 100 mg of hydroxyapatite powder (spec. surface area 60 m^2/g, Merck) was added. The pH value of the suspension was kept at a constant value of 7.4 by means of an automatic burette which can be used to add 0.05 molar KOH solution. The amount of 0.05 molar KOH solution consumed in order to stabilize the pH was registered with a recorder. The consumption of KOH solution (Ku) registered after 2 hours was equivalent to the formation of hydroxyapatite (growth of crystals in the suspension).
Inhibition of crystal growth by the active ingredient was calculated as follows: KWI (%)=(Ku−Kb)*100/Ku (%)

[3] = 150 mg active ingredient mixture
[4] = 30 mg active ingredient mixture

Compound	Apatite solubility [%] [1, 3]	Crystal growth inhibition [%] ([2]; 5 mg active ingredient)	Crystal growth inhibition [%] ([2]; 6 mg active ingredient)	Apatite solubility [%] [1, 4]
CC1CCC(C(C)C)C2(C1)OCC(CO)O2 (centres unmarked) [Example V10, Menthone glyceryl acetal]	13%	9%	17%	–
COC(=O)C(C)O (centres unmarked) [Example V9, Methyl lactate]	12%	10%	14%	5%
Cc1ccc(C(C)C)c(OCC(=O)N(Cc2cccs2)c2cc[nH]n2)c1 [Example V11, 2-(2-isopropyl-5-methylphenoxy)-N-(1H-pyrazol-3-yl)-N-(thiophen-2-yl)-methylacetamide]	14%	11%	16%	5%
